These results are taken from US10308663B2, “Inhibitors of PTP4A3 for the treatment of cancer” (University of Virginia Patent Foundation, priority 2015, dated 2019).

In one data set the test system is SKOV3. Nature of the data set: Ovarian cancer cell drug susceptibility (Alamar blue), SKOV3. The note with it: 44 h + 4 h Alamar blue. Type of data set: cell-based, human.
The test system of data set [1] is A2780CW (Cisplatin sensitive). Nature of the data set: Ovarian cancer cell drug susceptibility (Alamar blue), A2780CW. The note with it: 44 h + 4 h Alamar blue. Type of data set: cell-based, human. Background: Alamar Blue is a resazurin reagent that responds to reducing activity.
The next data set relates to OVCAR-4. The data set can be described thus: Ovarian cancer cell drug susceptibility (Alamar blue), OVCAR-4. Type of data set: cell-based, human. The conditions noted are these: 44 h + 4 h Alamar blue.
For data set [2], the system named is A2780CP20 (Cisplatin resistant). Nature of the data set: Ovarian cancer cell drug susceptibility (Alamar blue), A2780CP20. Type of data set: cell-based, human. The conditions noted are these: 44 h + 4 h Alamar blue.
In another data set the target is PTP-Tcell (Homo sapiens (Human), UniProt P17706). The note with it: DiFMUP as a substrate; reported by Hoeger et al.; cited from earlier work.
The next data set addresses PTP1B (Homo sapiens (Human), UniProt P18031). The conditions noted are these: DiFMUP as a substrate; reported by Hoeger et al.; cited from earlier work.
A further data set has as its target HCP cat (Homo sapiens (Human), UniProt P29350). The conditions noted are these: DiFMUP as a substrate; reported by Hoeger et al.; cited from earlier work.
In another data set the target is SHP2 cat (Homo sapiens (Human), UniProt Q06124). The conditions noted are these: DiFMUP as a substrate; reported by Hoeger et al.; cited from earlier work.
Data set [3] has as its system MsTuWT cells (Ptp4a3 wildtype). The data set can be described thus: Cell adhesion assay (xCELLigence), MsTuWT. In kind it is cell-based, mouse. The note with it: xCELLigence Cell Index.
Another data set concerns the target PTPgD1 (Homo sapiens (Human), UniProt P23470). The conditions noted are these: DiFMUP as a substrate; reported by Hoeger et al.; cited from earlier work.
Another data set addresses CD45 (Homo sapiens (Human), UniProt P08575). The note with it: DiFMUP as a substrate; reported by Hoeger et al.; cited from earlier work.
A further data set has as its target LARD1 (Homo sapiens (Human), UniProt P10586). The conditions noted are these: DiFMUP as a substrate; reported by Hoeger et al.; cited from earlier work.
Another data set addresses PTPb cat (Homo sapiens (Human), UniProt P23467). The conditions noted are these: DiFMUP as a substrate; reported by Hoeger et al.; cited from earlier work.
Data set [4] is described as follows: Spontaneous conversion of 5 to 6 under assay conditions. The note with it: 90 min, in the presence or absence of DTT. Type of data set: physicochemical.
Another data set addresses PTPaD1 (Homo sapiens (Human), UniProt P18433). The note with it: DiFMUP as a substrate; reported by Hoeger et al.; cited from earlier work.
For another data set, the target named is PTPeD1 (Homo sapiens (Human), UniProt P23469). The conditions noted are these: DiFMUP as a substrate; reported by Hoeger et al.; cited from earlier work.
PTPeD1, sequence (P23469 135-394): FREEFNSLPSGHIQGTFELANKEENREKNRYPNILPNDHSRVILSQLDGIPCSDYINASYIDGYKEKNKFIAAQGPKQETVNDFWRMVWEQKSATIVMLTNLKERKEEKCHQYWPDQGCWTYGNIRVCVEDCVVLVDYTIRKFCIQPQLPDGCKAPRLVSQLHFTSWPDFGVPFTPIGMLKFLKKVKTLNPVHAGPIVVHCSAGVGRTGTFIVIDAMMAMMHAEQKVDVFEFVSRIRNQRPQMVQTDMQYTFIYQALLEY

CD45, sequence (P08575 26-1306, species assumed): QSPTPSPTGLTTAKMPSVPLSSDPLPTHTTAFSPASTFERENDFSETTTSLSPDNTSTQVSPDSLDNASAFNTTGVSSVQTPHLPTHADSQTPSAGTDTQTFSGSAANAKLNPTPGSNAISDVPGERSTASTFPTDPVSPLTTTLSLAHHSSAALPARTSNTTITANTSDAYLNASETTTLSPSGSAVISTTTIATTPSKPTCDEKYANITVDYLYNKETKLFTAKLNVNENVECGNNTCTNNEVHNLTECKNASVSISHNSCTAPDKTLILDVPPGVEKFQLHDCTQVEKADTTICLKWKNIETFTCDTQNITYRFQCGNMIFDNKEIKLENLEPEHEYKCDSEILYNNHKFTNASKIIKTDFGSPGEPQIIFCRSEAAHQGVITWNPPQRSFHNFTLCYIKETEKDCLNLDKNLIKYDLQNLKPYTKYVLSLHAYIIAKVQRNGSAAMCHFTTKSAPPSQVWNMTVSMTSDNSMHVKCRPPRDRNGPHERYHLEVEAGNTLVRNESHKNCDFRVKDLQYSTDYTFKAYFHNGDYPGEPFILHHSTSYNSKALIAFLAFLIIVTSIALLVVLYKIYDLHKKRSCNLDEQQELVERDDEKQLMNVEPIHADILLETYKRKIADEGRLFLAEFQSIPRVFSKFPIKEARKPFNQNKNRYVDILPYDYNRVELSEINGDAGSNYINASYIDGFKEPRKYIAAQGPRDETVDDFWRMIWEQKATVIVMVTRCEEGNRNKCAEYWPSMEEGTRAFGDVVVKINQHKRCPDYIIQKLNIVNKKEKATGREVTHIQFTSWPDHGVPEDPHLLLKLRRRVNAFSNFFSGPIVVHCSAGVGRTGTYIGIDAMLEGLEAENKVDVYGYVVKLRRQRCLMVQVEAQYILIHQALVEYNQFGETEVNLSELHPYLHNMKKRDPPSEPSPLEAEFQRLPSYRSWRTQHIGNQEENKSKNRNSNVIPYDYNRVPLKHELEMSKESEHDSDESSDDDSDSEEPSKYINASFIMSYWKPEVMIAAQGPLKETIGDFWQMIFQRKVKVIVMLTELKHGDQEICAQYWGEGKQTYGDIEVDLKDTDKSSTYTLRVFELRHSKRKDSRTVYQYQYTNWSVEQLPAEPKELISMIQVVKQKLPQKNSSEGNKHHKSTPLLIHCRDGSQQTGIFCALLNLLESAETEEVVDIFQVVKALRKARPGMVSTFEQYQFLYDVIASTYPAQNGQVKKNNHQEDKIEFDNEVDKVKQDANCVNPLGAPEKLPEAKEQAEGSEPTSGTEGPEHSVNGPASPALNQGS
PTP-Tcell, sequence (P17706 whole entry): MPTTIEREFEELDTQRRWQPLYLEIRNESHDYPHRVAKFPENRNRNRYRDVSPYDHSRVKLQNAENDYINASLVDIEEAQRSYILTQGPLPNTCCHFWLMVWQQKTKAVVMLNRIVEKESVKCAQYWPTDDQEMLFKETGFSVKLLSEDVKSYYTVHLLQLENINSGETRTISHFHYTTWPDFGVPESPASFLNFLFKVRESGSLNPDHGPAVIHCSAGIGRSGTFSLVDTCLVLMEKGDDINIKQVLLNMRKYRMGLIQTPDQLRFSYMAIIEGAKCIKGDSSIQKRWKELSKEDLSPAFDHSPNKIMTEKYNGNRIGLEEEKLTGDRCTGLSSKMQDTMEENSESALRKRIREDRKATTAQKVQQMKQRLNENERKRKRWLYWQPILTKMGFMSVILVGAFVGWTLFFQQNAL
SHP2 cat, sequence (Q06124 247-517): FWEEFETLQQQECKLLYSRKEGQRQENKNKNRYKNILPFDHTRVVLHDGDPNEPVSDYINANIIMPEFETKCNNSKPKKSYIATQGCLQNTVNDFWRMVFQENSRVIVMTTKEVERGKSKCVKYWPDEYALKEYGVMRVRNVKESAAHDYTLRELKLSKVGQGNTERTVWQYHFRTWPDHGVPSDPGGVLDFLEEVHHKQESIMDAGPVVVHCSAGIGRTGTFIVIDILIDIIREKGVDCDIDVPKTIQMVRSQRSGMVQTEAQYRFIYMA
PTPb cat, sequence (P23467 1703-1963): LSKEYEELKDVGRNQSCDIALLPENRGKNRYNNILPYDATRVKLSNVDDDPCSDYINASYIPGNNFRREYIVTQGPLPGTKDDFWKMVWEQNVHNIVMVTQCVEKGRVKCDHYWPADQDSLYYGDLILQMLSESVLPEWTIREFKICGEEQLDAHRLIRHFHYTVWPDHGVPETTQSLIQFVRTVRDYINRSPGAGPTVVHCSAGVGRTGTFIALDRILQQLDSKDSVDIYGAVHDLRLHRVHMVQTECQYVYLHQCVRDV
PTP1B, sequence (P18031 whole entry, species assumed): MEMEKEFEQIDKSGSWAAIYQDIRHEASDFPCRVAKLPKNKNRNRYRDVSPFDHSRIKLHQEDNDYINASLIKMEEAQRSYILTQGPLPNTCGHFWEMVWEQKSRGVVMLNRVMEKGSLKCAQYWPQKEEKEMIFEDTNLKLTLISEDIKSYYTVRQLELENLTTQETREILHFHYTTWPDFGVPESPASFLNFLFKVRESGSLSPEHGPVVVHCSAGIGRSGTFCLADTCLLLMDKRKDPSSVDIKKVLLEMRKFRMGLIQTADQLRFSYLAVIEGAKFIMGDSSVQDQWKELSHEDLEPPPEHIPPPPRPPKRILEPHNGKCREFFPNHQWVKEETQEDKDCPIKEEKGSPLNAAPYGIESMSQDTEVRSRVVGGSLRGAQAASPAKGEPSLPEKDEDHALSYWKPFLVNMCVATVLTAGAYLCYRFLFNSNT
HCP cat, sequence (P29350 244-515): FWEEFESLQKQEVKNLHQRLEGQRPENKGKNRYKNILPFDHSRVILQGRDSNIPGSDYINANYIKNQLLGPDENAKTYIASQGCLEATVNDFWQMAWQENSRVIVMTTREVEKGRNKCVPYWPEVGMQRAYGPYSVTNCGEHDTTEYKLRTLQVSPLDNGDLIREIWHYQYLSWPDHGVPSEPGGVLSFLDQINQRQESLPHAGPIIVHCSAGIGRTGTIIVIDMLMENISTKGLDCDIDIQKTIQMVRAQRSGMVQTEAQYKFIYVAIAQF
PTPgD1, sequence (P23470 848-1119): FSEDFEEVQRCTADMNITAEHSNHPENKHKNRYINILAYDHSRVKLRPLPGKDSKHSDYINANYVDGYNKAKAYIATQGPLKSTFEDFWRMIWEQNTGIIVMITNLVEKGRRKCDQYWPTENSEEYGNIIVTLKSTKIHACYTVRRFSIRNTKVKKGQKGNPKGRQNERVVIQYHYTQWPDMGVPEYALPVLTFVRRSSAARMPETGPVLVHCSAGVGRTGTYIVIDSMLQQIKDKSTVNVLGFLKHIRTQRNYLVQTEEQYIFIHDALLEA
LARD1, sequence (P10586 1352-1607): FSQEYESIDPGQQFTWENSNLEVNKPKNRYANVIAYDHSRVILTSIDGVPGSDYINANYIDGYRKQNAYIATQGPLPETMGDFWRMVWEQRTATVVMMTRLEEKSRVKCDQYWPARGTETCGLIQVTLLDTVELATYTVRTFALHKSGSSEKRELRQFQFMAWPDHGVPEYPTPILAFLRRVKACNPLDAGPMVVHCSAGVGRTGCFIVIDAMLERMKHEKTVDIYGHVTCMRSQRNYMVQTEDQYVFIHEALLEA
PTPaD1, sequence (P18433 241-501): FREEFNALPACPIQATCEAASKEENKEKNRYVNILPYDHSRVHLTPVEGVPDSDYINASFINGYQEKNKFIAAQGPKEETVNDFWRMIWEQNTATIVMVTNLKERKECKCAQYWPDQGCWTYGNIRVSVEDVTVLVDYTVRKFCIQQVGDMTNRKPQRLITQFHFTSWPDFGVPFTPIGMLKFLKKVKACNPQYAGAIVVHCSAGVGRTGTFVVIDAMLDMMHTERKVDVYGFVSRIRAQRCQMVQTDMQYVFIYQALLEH

What is called EC50 is the concentration at which the effect is half-maximal. Turning to `O=C1NC(=S)S/C1=C/c1cc(Br)ccc1OCc1ccccc1Br` [BR-1], the EC50 was 48.3 ± 9.1 µM in the data set on SKOV3 (Homo sapiens, SK-OV-3); 26.4 ± 1 µM in [1] (Homo sapiens); 48.5 ± 7.9 µM with OVCAR-4 (Homo sapiens, OVCAR-4); 17.3 ± 2 µM in [2] (Homo sapiens).

Turning to `N.N.[Cl][Pt][Cl]` [Cisplatin], the EC50 in the data set with SKOV3 is over 100 µM; in data set [1] it was 3.7 ± 1.8 µM; in the data set with OVCAR-4, 30.3 ± 4.4 µM; in data set [2] it was over 100 µM.

Regarding `O=c1[nH]c(=O)c2cc(-c3ccccc3)sc2[nH]1` [JMS-557-038], the EC50 is over 50 µM in the data set with SKOV3 (Homo sapiens, SK-OV-3); over 50 µM in [1] (Homo sapiens); over 50 µM in the data set on OVCAR-4 (Homo sapiens, OVCAR-4); over 50 µM in data set [2] (Homo sapiens).

The IC50 is the midpoint of a concentration-inhibition curve. With `Nc1c[nH]c(=O)c2cc(-c3ccccc3)sc12` [Thienopyridone (5), 7-amino-2-phenylthieno[3,2-c]pyridin-4(5H)-one], the EC50 came to 28.8 ± 2.2 µM in the data set with SKOV3 (Homo sapiens, SK-OV-3); 4.5 ± 0.6 µM in [1] (Homo sapiens); 15.5 ± 2.4 µM with OVCAR-4 (Homo sapiens, OVCAR-4); 13.1 ± 6 µM in data set [2] (Homo sapiens). Besides, the IC50 on PTP-Tcell was over 100 µM; at PTP1B it was over 100 µM; on HCP cat, 71 µM; on SHP2 cat, over 100 µM; at PTPgD1 it was over 100 µM; on CD45, over 100 µM. The concentration for half-maximal inhibition (IC50) is over 100 µM at LARD1, 67 µM on PTPb cat, over 100 µM on PTPaD1 and over 100 µM on PTPeD1. Moreover, the MsTuWT adherence entry in data set [3] was “inhibited”. Besides, the “spontaneous conversion of 5 to 6” value in data set [4] was “not detect quantifiable (>5%) spontaneous conversion”.
